# In paper PMC6073232 (International Journal of Molecular Sciences, 2018):
# What was measured:
# TRESK (K2P18.1) [1] = biological target: T1, TRESK (K2P18.1) (Mus musculus, UniProt Q6VV64); assay: whole-cell patch clamp, % inhibition at […]; assay type: cell-based
# T1 construct: gene Kcnk18; mouse TRESK (NM_207261) in HEK-293 cells
# T1 sequence (Q6VV64 1-394): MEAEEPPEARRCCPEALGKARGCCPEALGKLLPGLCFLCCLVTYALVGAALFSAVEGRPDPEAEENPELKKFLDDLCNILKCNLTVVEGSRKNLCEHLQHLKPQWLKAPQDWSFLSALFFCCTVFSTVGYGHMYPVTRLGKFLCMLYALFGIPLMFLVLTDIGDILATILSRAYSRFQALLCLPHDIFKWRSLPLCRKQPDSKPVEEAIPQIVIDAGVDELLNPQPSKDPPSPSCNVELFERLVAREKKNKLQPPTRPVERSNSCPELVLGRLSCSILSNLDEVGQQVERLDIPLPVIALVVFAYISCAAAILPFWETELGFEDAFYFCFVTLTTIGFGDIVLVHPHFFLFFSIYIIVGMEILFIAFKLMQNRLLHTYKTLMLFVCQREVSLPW
# TRESK (K2P18.1) [2] = biological target: T1, TRESK (K2P18.1); assay: whole-cell patch clamp (abstract prints IC50 […]); assay type: cell-based
inhibition at 20 µM (TRESK (K2P18.1) [1]) [%],SMILES,IC50 (TRESK (K2P18.1) [2]) [µM]
45 ± 6,COc1ccc(CCN(C)CCCC(C#N)(c2cc(OC)c(OC)c(OC)c2)C(C)C)cc1OC (centres unmarked) [D600],–
–,COC(=O)C1=C(C)NC(C)=C(C(=O)OC)C1c1ccccc1[N+](=O)[O-] [nifedipine],63.8
